Experimental data reported in paper PMC9553805 (Clinical Pharmacokinetics, 2022).
Where “and” joins values, the source holds several entries; their conditions need not be identical. Identical values can stand only once. Like-named read-outs stand apart in the source and are kept apart here.

What was measured:
CYP3A4 [1] = biological target: T1, CYP3A4 (Homo sapiens, UniProt P08684); assay: Part D: effect of steady-state tucatinib on pharmacokinetics of midazolam; details: for clinical classification as inhibitor of CYP3A/CYP3A4: steady-state tucatinib 300 mg BID, midazolam probe
CYP2C9 [2] = biological target: CYP2C9 (Homo sapiens, UniProt P11712); assay: Part D: effect of steady-state tucatinib on pharmacokinetics of tolbutamide
P-glycoprotein (P-gp) [3] = biological target: P-glycoprotein (P-gp) (Homo sapiens, UniProt P08183); assay: Part E: effect of steady-state tucatinib on pharmacokinetics of digoxin; assay type: in vivo; details: for clinical classification as inhibitor of P-glycoprotein: steady-state tucatinib 300 mg BID, digoxin probe
CYP3A4/CYP2C8 = assay: Part B: effect of rifampin; assay type: in vivo, human
[4] = humans, cited from earlier work
CYP3A4 [5] = biological target: T1, CYP3A4; assay: Part A: effect of itraconazole; assay type: in vivo
CYP2C8 [6] = biological target: T2, CYP2C8 (Homo sapiens, UniProt P10632)
T2 sequence (P10632 1-490): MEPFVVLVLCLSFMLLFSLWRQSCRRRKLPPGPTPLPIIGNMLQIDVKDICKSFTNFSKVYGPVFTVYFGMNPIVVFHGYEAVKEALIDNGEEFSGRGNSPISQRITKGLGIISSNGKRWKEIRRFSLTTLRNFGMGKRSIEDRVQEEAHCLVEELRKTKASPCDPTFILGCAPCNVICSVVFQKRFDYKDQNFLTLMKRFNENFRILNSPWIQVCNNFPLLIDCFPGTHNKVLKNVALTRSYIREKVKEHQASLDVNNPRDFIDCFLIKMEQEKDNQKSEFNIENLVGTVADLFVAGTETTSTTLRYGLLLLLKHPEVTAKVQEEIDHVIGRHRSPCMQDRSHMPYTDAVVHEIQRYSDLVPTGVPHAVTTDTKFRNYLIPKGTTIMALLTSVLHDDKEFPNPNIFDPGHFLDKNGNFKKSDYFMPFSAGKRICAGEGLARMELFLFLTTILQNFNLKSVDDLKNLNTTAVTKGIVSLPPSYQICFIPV

CYP2C8 [7] = biological target: T2, CYP2C8; details: for clinical classification as inhibitor of CYP2C8: steady-state tucatinib 300 mg BID, repaglinide probe
CYP2C9 [8] = details: in vitro; cited from earlier work
CYP2C8 [9] = details: in vitro; cited from earlier work
P-glycoprotein (P-gp) [10] = details: in vitro; cited from earlier work
[11] = cited from earlier work
CYP3A4 [12] = details: in vitro; cited from earlier work
CYP2C8 [13] = assay type: in vivo, human; details: 84 subjects enrolled in this study; regardless of phenotype
Safety assessments = assay type: in vivo, human
[14] = with tucatinib vs tolbutamide/midazolam alone
[15] = tolbutamide/midazolam + tucatinib vs tolbutamide/midazolam alone
[16] = digoxin + tucatinib vs digoxin alone
[17] = in the presence of rifampin vs tucatinib alone
[18] = coadministration of itraconazole vs tucatinib alone
[19] = following gemfibrozil vs tucatinib alone
[20] = tucatinib + rifampin vs tucatinib alone
[21] = tucatinib + itraconazole vs tucatinib alone
[22] = tucatinib + gemfibrozil vs tucatinib alone

T1 sequence (P08684 whole entry): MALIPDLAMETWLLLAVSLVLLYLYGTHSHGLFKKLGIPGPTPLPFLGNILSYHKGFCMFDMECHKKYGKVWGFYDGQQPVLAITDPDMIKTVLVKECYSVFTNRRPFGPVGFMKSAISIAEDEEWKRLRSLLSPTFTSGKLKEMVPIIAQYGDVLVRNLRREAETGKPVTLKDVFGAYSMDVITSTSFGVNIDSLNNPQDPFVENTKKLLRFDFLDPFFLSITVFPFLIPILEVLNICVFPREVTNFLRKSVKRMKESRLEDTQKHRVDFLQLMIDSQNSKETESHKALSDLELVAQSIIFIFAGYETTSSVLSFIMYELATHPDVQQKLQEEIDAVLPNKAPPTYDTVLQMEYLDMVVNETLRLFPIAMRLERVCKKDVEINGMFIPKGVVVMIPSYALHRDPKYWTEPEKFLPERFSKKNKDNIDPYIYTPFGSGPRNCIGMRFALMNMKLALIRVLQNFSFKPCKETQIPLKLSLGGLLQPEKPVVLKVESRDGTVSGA
Chain of P-glycoprotein (P-gp) (Homo sapiens, UniProt P08183) (P08183 whole entry): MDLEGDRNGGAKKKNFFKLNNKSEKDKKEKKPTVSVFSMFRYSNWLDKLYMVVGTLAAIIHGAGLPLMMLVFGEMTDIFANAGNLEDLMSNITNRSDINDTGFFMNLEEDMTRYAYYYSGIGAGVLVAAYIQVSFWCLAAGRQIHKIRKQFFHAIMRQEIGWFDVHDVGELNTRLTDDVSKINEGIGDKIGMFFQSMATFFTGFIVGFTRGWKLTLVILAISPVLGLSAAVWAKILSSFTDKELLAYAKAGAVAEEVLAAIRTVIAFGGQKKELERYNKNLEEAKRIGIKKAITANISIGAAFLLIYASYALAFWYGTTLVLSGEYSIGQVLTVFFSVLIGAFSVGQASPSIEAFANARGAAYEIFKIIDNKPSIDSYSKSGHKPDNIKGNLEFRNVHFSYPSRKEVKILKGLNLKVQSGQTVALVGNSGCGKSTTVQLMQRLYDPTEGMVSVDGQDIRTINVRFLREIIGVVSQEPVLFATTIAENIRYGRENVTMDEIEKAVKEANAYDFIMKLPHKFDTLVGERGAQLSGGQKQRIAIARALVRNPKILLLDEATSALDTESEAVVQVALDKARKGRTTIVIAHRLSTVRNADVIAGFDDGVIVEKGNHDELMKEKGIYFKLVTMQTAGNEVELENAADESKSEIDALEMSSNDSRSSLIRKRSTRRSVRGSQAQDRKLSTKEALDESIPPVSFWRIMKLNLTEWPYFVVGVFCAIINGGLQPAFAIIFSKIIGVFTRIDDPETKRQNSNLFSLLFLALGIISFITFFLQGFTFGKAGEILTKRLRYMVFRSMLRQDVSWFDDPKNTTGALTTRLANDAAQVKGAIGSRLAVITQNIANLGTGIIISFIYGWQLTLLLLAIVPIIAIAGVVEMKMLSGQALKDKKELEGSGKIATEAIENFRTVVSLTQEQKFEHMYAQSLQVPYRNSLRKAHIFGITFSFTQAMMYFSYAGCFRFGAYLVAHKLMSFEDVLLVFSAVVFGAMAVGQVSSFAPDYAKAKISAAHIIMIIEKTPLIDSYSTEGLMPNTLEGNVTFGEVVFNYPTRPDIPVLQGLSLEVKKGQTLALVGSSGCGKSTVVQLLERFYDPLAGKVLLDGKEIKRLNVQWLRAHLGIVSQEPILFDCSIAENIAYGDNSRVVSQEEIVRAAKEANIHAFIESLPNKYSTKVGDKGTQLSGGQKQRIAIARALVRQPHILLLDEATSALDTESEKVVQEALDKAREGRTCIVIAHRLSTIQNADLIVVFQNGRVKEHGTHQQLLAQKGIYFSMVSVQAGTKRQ
Chain of CYP2C9 (Homo sapiens, UniProt P11712) (P11712 whole entry): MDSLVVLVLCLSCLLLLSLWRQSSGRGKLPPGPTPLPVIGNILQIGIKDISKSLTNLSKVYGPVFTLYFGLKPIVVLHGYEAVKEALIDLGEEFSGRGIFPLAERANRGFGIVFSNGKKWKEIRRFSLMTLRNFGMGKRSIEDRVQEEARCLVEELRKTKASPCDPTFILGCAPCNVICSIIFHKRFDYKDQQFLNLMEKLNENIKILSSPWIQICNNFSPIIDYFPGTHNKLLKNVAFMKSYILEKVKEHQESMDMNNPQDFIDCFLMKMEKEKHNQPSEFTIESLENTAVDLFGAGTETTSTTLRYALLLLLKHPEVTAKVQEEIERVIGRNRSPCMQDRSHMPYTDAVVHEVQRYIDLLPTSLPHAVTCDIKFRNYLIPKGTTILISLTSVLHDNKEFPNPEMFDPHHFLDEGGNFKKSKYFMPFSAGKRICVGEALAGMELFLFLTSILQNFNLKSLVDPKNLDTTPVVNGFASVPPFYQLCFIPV

OCc1ncc2n1-c1ccc(Cl)cc1C(c1ccccc1F)=NC2 [1-hydroxymidazolam]
effect of tucatinib on exposure based on AUC0–last and AUC0–inf (CYP3A4 [1]; [14]): no effect | reduction of Cmax (CYP3A4 [1]; [14]): approximately 40%

CCCCNC(=O)NS(=O)(=O)c1ccc(CO)cc1 [4-hydroxytolbutamide, reference compound]
plasma exposures with vs without tucatinib (CYP2C9 [2]; [15]): Similar

C[C@H]1O[C@@H](O[C@H]2[C@@H](O)C[C@H](O[C@H]3[C@@H](O)C[C@H](O[C@H]4CC[C@@]5(C)[C@H](CC[C@@H]6[C@@H]5C[C@@H](O)[C@]5(C)[C@@H](C7=CC(=O)OC7)CC[C@]65O)C4)O[C@@H]3C)O[C@@H]2C)C[C@H](O)[C@@H]1O [Digoxin, digoxin]
increase in plasma exposure based on AUC0–inf (P-glycoprotein (P-gp) [3]; [16]): approximately 1.5 fold | increase in plasma exposure based on AUC0–last (P-glycoprotein (P-gp) [3]; [16]): approximately 1.5 fold | increase in plasma exposure based on Cmax (P-glycoprotein (P-gp) [3]; [16]): ~2.4 fold

Cc1ncc2n1-c1ccc(Cl)cc1C(c1ccccc1F)=NC2 [Midazolam, midazolam]
increase in plasma exposure based on AUC0–inf (CYP3A4 [1]; [15]): 5.7 fold and > 5 fold | increase in plasma exposure based on AUC0–last (CYP3A4 [1]; [15]): 5.3 fold | increase in plasma exposure based on Cmax (CYP3A4 [1]; [15]): 3.0 fold | reduction of metabolic ratio for AUC0–inf (CYP3A4 [1]; [14]): approximately 83% | reduction of metabolic ratio for Cmax (CYP3A4 [1]; [14]): ~80%

Cc1cc(Nc2ncnc3ccc(NC4=NC(C)(CO)CO4)cc23)ccc1Oc1ccn2ncnc2c1 (stereo not shown) [ONT-993]
metabolic ratio for AUC0–inf, fold higher (CYP3A4/CYP2C8; [17]): 1.4 fold | metabolic ratio for Cmax, fold higher (CYP3A4/CYP2C8; [17]): 3.3 fold | radioactive component in feces, share of the dose ([4]; feces): 37% | radioactive component in urine, share of the dose ([4]; urine): 1.5% | geometric least squares mean ratio for AUC0–inf (CYP3A4 [5]; [18]): 1.6 | geometric least squares mean ratio for Cmax (CYP3A4 [5]; [18]): 2.0 | decrease of metabolic ratio for AUC0–inf (CYP2C8 [6]; [19]): approximately 71% | decrease of metabolic ratio for Cmax (CYP2C8 [6]; [19]): ~81%

CCOc1cc(CC(=O)N[C@@H](CC(C)C)c2ccccc2N2CCCCC2)ccc1C(=O)O [Repaglinide, repaglinide, reference compound]
increase in plasma exposure based on Cmax (CYP2C8 [7]; repaglinide + tucatinib vs repaglinide alone): ~1.7 fold

Cc1cc(Nc2ncnc3ccc(NC4=NC(C)(C)CO4)cc23)ccc1Oc1ccn2ncnc2c1 [Tucatinib]
decrease in plasma exposure based on AUC0–inf (CYP3A4/CYP2C8; [20]): 48% | decrease in plasma exposure based on AUC0–last (CYP3A4/CYP2C8; [20]): approximately 48% | decrease in plasma exposure based on Cmax (CYP3A4/CYP2C8; [20]): ~37% | decrease in plasma exposure based on AUC0–inf (CYP3A4/CYP2C8; tucatinib + rifampin vs tucatinib alone, listed as tucatinib): approximately 48% | type of inhibition of CYP2C9 (CYP2C9 [8]): competitive inhibition | type of inhibition of CYP2C8 (CYP2C8 [9]): competitive inhibition | type of inhibition of P-glycoprotein (P-gp) (P-glycoprotein (P-gp) [10]): competitive inhibition | impact of food on tucatinib exposures [11]: no clinically relevant impact | inactivation of CYP3A (CYP3A4 [12]): time/metabolism-dependent inactivation | type of inhibition of CYP3A4 (CYP3A4 [12]): competitive inhibition | increase in plasma exposure based on AUC0–inf (CYP3A4 [5]; [21]): ~ 1.3 fold | increase in plasma exposure based on AUC0–last (CYP3A4 [5]; [21]): approximately 1.3 fold | increase in plasma exposure based on Cmax (CYP3A4 [5]; [21]): approximately 1.3 fold | clinical classification as inhibitor of CYP2C8 (CYP2C8 [7]): weak inhibitor | clinical classification as inhibitor of CYP2C8 (CYP2C8 [7]; listed as tucatinib): only weakly inhibits | clinical classification as inhibitor of P-glycoprotein (P-glycoprotein (P-gp) [3]): weak inhibitor | clinical classification as inhibitor of P-glycoprotein (P-glycoprotein (P-gp) [3]; listed as tucatinib): only weakly inhibits | tucatinib exposures by CYP2C8 metabolizer phenotype (CYP2C8 [13]): similar | impact on CYP2C9-mediated metabolism in humans (CYP2C9 [2]; steady-state tucatinib 300 mg BID, tolbutamide probe): no impact | increase in plasma exposure based on AUC0–inf (CYP2C8 [6]; [22]): ~3.0 fold | increase in plasma exposure based on AUC0–last (CYP2C8 [6]; [22]): approximately 3.0 fold | increase in plasma exposure based on Cmax (CYP2C8 [6]; [22]): ~1.6 fold | participants with serum creatinine increases (Safety assessments; Part A): 50% | participants with serum creatinine increases (Safety assessments; Part B): 4% | participants with serum creatinine increases (Safety assessments; Part D): 71% | participants with serum creatinine increases (Safety assessments; Part E): 54% | Grade 3 or higher events (Safety assessments; Parts A through E overall): No Grade 3 or higher events | TEAEs considered Grade 1 (events) (Safety assessments; Parts A through E overall): 65 | total number of TEAEs (Safety assessments; Parts A through E overall): 71 | subjects reporting TEAEs (Safety assessments; Parts A through E overall, 37 of 114 subjects): 32.5% | tolerability (Safety assessments; Parts A–E, alone and with co-administered drugs): well tolerated | events of ALT elevation reported as Grade 1 TEAEs (Safety assessments; Parts D and E): five | renal function by cystatin C levels (Safety assessments; Parts D and E): did not reveal any elevated values | clinical classification as inhibitor of CYP3A/CYP3A4 (CYP3A4 [1]): strong inhibitor | clinical classification as inhibitor of CYP3A/CYP3A4 (CYP3A4 [1]; listed as tucatinib): strong CYP3A4 inhibitor
